Assay results: patent US20090012144A1 (priority 2000, published 2009)
Values belong to the compound of their own block, whether it stands above or below them.

How the values were obtained:
Tetranychus urticae = experiment: Tetranychus test (OP-resistant/dip treatment); format: in vivo
Procedure: [table] To produce a suitable preparation of active compound, 1 part by weight of active compound is mixed with the stated amounts of solvent and emulsifier, and the concentrate is diluted with emulsifier-containing water to the desired concentration. Bean plants (Phaseolus vulgaris) which are heavily infested by all stages of the greenhouse […] spider mite (Tetranychus urticae) are dipped into the preparation of active compound of the desired concentration. After the desired period of time, the efficacy in % is determined. 100% means that all spider mites have been killed; 0% means that none of the spider mites have been killed.

[1] = log P determination by HPLC (reversed-phase C 18), EEC Directive 79/831 Annex V.A8; format: physicochemical; conditions: HPLC, pH 2.3, 43° C.; read-out: log P (pH 2.3)
Procedure: The log P values given in the tables and Preparation Examples above are determined in accordance with EEC Directive 79/831 Annex V.A8 by HPLC (High Performance Liquid Chromatography) using a reversed-phase column (C 18). Temperature: 43° C. […]
Calibration was carried out using unbranched alkan-2-ones (having 3 to 16 carbon atoms) with known log P values (determination of the log P values by the retention times using linear interpolation between two successive […]).

Heliothis armigera = Heliothis armigera test (soya bean shoots, dip); format: in vivo
Procedure: [table] To prepare a suitable preparation of active compound, 1 part by weight of active compound is mixed with the stated amounts of solvent and emulsifier, and the concentrate is diluted with emulsifier-containing water to the desired concentration. Soya bean shoots (Glycine max) are treated by being dipped into the preparation of active compound of the desired concentration and are populated with caterpillars of the cotton bollworm (Heliothis armigera) while the leaves are still moist. After the desired period of time, the kill in % is determined. 100% means that all caterpillars have been killed; 0% means that none of the caterpillars have been killed.

Heliothis virescens = Heliothis virescens test (soya bean shoots, dip); format: in vivo
Procedure: [table] To prepare a suitable preparation of active compound, 1 part by weight of active compound is mixed with the stated amounts of solvent and emulsifier, and the concentrate is diluted with emulsifier-containing water to the desired concentration. Soya bean shoots (Glycine max) are treated by being dipped into the preparation of active compound of the desired concentration and are populated with Heliothis virescens caterpillars while the leaves are still moist. After the desired period of time, the kill in % is determined. 100% means that all caterpillars have been killed; 0% means that none of the caterpillars have been killed.

[2] = test system: Amblyomma hebraeum nymphs; experiment: Amblyomma hebraeum (EH) polyphargous tick nymphs/dip treatment; format: in vivo; conditions: 10 ppm, 1 min immersion, after 4 weeks; 100% = no normal ecdysis
Procedure: [table] 20 mg of active compound are dissolved in 1 ml of dimethyl sulphoxide. To prepare a suitable formulation, the solution of active compound is diluted with water to the concentration desired in each case. 10 nymphs which have sucked themselves full are immersed for 1 min in the preparation of active compound to be tested. The animals are transferred to petri dishes (Ø 9.5 cm) fitted with filter paper discs and covered. After the nymphs have remained in a controlled-environment cabinet for 4 weeks, the ecdysis rate is determined. 100% means that none of the animals have undergone normal ecdysis. 0% means that all animals have undergone ecdysis.

[3] = test system: Amblyomma hebraeum nymphs; experiment: Amblyomma hebraeum (EH) tick nymphs/dip treatment, determination of the ED50; format: in vivo; conditions: 1 min immersion, ecdysis rate after 4 weeks; not determinable = 50% not reached at 1000 ppm
Procedure: [table] 20 mg of active compound are dissolved in 1 ml of dimethyl sulphoxide. To prepare a suitable preparation, the solution of active compound is diluted with water to the concentration desired in each case. For the determination of the ED50 value, a dose-activity curve with the concentration spectrum 1000, 300, 100, 30, 10, 3, 1, 0.3, 0.1, 0.03, 0.01 ppm is prepared. 10 nymphs which have sucked themselves full are immersed for 1 min into the preparation of active compound to be tested. The animals are transferred to petri dishes (Ø 9.5 cm) fitted with filter paper discs and covered. After the nymphs have remained in a controlled-environment cabinet for 4 weeks, the ecdysis rate is determined. 100% means that none of the animals have undergone normal ecdysis. 0% means that all animals have undergone ecdysis. The data are calculated by a 4-parameter logistic curve fit using XLfit (ID Business Solutions Ltd.). If at 1000 ppm 50% mortality has not been reached, the ED50 is judged to be not determinable.

Structure (SMILES): FC(F)=C(F)Oc1ccc(-c2ccc([C@H]3CCC(c4c(F)cccc4F)=N3)cc2)cc1
Kill rate in % after 7 d (Tetranychus urticae; 0.01 ppm): 98%

Structure (SMILES): CC(C)(C)[Si](C)(C)Oc1ccc(-c2ccc([C@H]3CCC(c4c(F)cccc4F)=N3)cc2)cc1 [I-8, (2R)-2-(4′-{[tert-butyl(dimethyl)silyl]oxy}-1,1′-biphenyl-4-yl)-5-(2,6-difluorophenyl)-3,4-dihydro-2H-pyrrole]
chromatographic logP [1]: 6.2
melting point: 33 °C

melting point: 217 °C
Structure (SMILES): OC1([C@H]2CCC(c3c(F)cccc3F)=N2)C=CC(c2ccccc2)=CC1 (stereo partly drawn) [I-9, 4′-[(2R)-5-(2,6-difluorophenyl)-3,4-dihydro-2H-pyrrol-2-yl]-1,1′-biphenyl-4′-ol]

melting point: 146 to 148 °C
Structure (SMILES): [O-][S+](c1ccc(-c2ccc([C@H]3CCC(c4c(F)cccc4F)=N3)cc2)cc1)C(F)(F)F (some centres unmarked) [I-10]

melting point: 148 to 150 °C
Structure (SMILES): O=S(=O)(c1ccc(-c2ccc([C@H]3CCC(c4c(F)cccc4F)=N3)cc2)cc1)C(F)F [I-14]

Structure (SMILES): Fc1cccc(F)c1C1=N[C@@H](c2ccc(-c3ccc(OC(F)(F)F)cc3)cc2)CC1 [drawing 59]
Kill rate in % after 6 d (Heliothis armigera; 8 ppm): 100%

Structure (SMILES): Fc1cccc(F)c1C1=N[C@H](c2ccc(-c3ccc(OC(F)(F)F)cc3)cc2)CC1 [drawing 60, reference compound]
Kill rate in % after 6 d (Heliothis armigera; 8 ppm): 0%

Structure (SMILES): Fc1cccc(F)c1C1=N[C@@H](c2ccc(-c3ccc(SC(F)(F)F)cc3)cc2)CC1 [drawing 61]
Kill rate in % after 6 d (Heliothis armigera; 1.6 ppm): 100%

Structure (SMILES): Fc1cccc(F)c1C1=N[C@H](c2ccc(-c3ccc(SC(F)(F)F)cc3)cc2)CC1 [drawing 62, reference compound]
Kill rate in % after 6 d (Heliothis armigera; 1.6 ppm): 0%

Structure (SMILES): Fc1cccc(F)c1C1=NC(c2ccc(-c3ccc(OC(F)(F)F)cc3)cc2)CC1 (centres unmarked) [drawing 63]
Kill rate in % after 6 d (Heliothis virescens; 0.32 ppm): 20%

Structure (SMILES): Fc1cccc(F)c1C1=N[C@@H](c2ccc(-c3ccc(OC(F)(F)F)cc3)cc2)CC1 [drawing 64]
Kill rate in % after 6 d (Heliothis virescens; 0.32 ppm): 90%

Structure (SMILES): Fc1cccc(F)c1C1=N[C@H](c2ccc(-c3ccc(OC(F)(F)F)cc3)cc2)CC1 [drawing 65]
Kill rate in % after 6 d (Heliothis virescens; 8 ppm): 0%

Structure (SMILES): Fc1cccc(F)c1C1=N[C@@H](c2ccc(-c3ccc(SC(F)(F)F)cc3)cc2)CC1 [drawing 66]
Kill rate in % after 6 d (Heliothis virescens; 1.6 ppm): 100%

Structure (SMILES): Fc1cccc(F)c1C1=N[C@H](c2ccc(-c3ccc(SC(F)(F)F)cc3)cc2)CC1 [drawing 67]
Kill rate in % after 6 d (Heliothis virescens; 1.6 ppm): 15%

Structure (SMILES): CCOc1cc(C(C)(C)C)ccc1C1CCC(c2c(F)cccc2F)=N1 (centres unmarked) [drawing 97, reference compound]
Kill rate in % after 7 d (Tetranychus urticae; 0.32 ppm): 0%

Structure (SMILES): CCOc1cc(C(C)(C)C)ccc1[C@H]1CCC(c2c(F)cccc2F)=N1 [drawing 98]
Kill rate in % after 7 d (Tetranychus urticae; 0.32 ppm): 90%

Structure (SMILES): CCOc1cc(C(C)(C)C)ccc1[C@@H]1CCC(c2c(F)cccc2F)=N1 [drawing 99, reference compound]
Kill rate in % after 7 d (Tetranychus urticae; 8 ppm): 0%

Structure (SMILES): Fc1cccc(F)c1C1=N[C@@H](c2ccc(-c3ccc(OC(F)(F)F)cc3)cc2)CC1 [drawing 100]
Kill rate in % after 7 d (Tetranychus urticae; 0.0128 ppm): 95%

Structure (SMILES): Fc1cccc(F)c1C1=N[C@H](c2ccc(-c3ccc(OC(F)(F)F)cc3)cc2)CC1 [drawing 101, reference compound]
Kill rate in % after 7 d (Tetranychus urticae; 0.0128 ppm): 0%

Structure (SMILES): CCOc1cc(C(C)(C)C)ccc1C1CCC(c2c(F)cccc2F)=N1 (centres unmarked) [drawing 103]
Effects on ecdysis in % [2]: 100%

Structure (SMILES): CCOc1cc(C(C)(C)C)ccc1[C@H]1CCC(c2c(F)cccc2F)=N1 [drawing 104]
Effects on ecdysis in % [2]: 100%

Structure (SMILES): CCOc1cc(C(C)(C)C)ccc1[C@@H]1CCC(c2c(F)cccc2F)=N1 [drawing 105]
Effects on ecdysis in % [2]: 0%

Structure (SMILES): Fc1cccc(F)c1C1=NC(c2ccc(-c3ccc(OC(F)(F)F)cc3)cc2)CC1 (centres unmarked) [drawing 106]
Effects on ecdysis in % [2]: 100%

Structure (SMILES): Fc1cccc(F)c1C1=N[C@@H](c2ccc(-c3ccc(OC(F)(F)F)cc3)cc2)CC1 [drawing 107]
Effects on ecdysis in % [2]: 100%

Structure (SMILES): Fc1cccc(F)c1C1=N[C@H](c2ccc(-c3ccc(OC(F)(F)F)cc3)cc2)CC1 [drawing 108]
Effects on ecdysis in % [2]: 0%

Structure (SMILES): CCOc1cc(C(C)(C)C)ccc1C1CCC(c2c(F)cccc2F)=N1 (centres unmarked) [drawing 109]
ED 50 (ppm) [3]: 0.27 ppm

Structure (SMILES): CCOc1cc(C(C)(C)C)ccc1[C@H]1CCC(c2c(F)cccc2F)=N1 [drawing 110]
ED 50 (ppm) [3]: 0.14 ppm

Structure (SMILES): CCOc1cc(C(C)(C)C)ccc1[C@@H]1CCC(c2c(F)cccc2F)=N1 [drawing 111]
ED 50 (ppm) [3]: notdeterminable

Structure (SMILES): Fc1cccc(F)c1C1=NC(c2ccc(-c3ccc(OC(F)(F)F)cc3)cc2)CC1 (centres unmarked) [drawing 112]
ED 50 (ppm) [3]: 0.58 ppm

Structure (SMILES): Fc1cccc(F)c1C1=N[C@@H](c2ccc(-c3ccc(OC(F)(F)F)cc3)cc2)CC1 [drawing 113]
ED 50 (ppm) [3]: 0.20 ppm

Structure (SMILES): Fc1cccc(F)c1C1=N[C@H](c2ccc(-c3ccc(OC(F)(F)F)cc3)cc2)CC1 [drawing 114]
ED 50 (ppm) [3]: 549.86 ppm
